What all share (type): biochemical
One test addresses T1, human pancreatic PLA2 (Homo sapiens, UniProt P04054).
T1 construct: radiolabelled E. coli membrane hydrolysis assay
The test is described as follows: Inhibition of human pancreatic PLA2, E. coli assay. On the procedure:
(§1) Six different chemically-modified tetracyclines, including CMT-1 (4-dedimethylaminotetracycline), CMT-2 (tetracyclinonitrile), CMT-3 (6-demethyl-6-deoxy-4-dedimethylaminotetracycline), CMT-4 (4-de-dimethylamino-7-chloro-tetracycline), CMT-5 (pyrazole analog) and CMT-6 (4-hydroxy-4-dedimethylaminotetracycline), were examined for their ability to inhibit PLA2 activity in vitro. The sources of PLA2 that were tested included recombinant human PLA2, human pancreatic and porcine pancreatic PLA2 and Naja naja PLA2. […] Various concentrations of CMTs, ranging from 5-100 μg/ml, were preincubated with the different PLA2 enzymes for 30 minutes and the mixture was tested for PLA2 activity using a known E. coli assay method (see Arthritis and Rheumatism, 34 Supp. 9: p. S160 (abst C167)).
(§2) A chemically-modified tetracycline, 4-dedimethylamino-7-dimethylaminotetracycline (CMT-10), was examined for its ability to inhibit PLA2 activity in vitro. The sources of PLA2 that were tested included were recombinant human PLA2 (snpPLA2), human pancreatic and porcine pancreatic PLA2 and Naja naja PLA2. […] Various concentrations of CMT-10, ranging from 5-100 μg/ml, were preincubated with the different PLA2 enzymes for 30 minutes and the mixture was tested for PLA2 activity using a known E. coli assay method (see Arthritis and Rheumatism, 34 Supp. 9: p. S160 (abst C167)).
(§3) In particular, [^14 C]Oleic acid-labelled Escherichia coli (strain K12 C600) were used as the substrate. This substrate has been characterized with respect to phospholipid composition and distribution of radiolabel. Reaction mixtures contained 10 mg bovine serum albumin, 2 mM CaCl2, 2.8×10^8 radiolabelled E. coli and 0.1M Tris-HCl buffer, pH 7.5 in a total volume of 1.5 ml. Reaction mixtures were incubated at 37° C. for 30 min. The reaction was terminated by filtration through a 0.45 μm Millipore filter, thereby retaining unhydrolysed E. coli membranes, and allowing the [^14 C]oleic acid bound to the BSA carrier, released as a result of PLA2 hydrolysis, to pass through the filter. Assays were performed in duplicate and values shown represent the mean of two determinations with a SD<5% of the mean. Assays were performed in substrate excess and enzyme activities were corrected for non-enzymatichydrolysis. One unit of PLA2 activity is defined as the hydrolysis of 56 pmol of phospholipid substrate (representing 1% of total E. coli phospholipid) in 30 min at 37° C.

For the next test, the target named is T2, porcine pancreatic PLA2 (Sus scrofa, UniProt P00592).
T2 construct: radiolabelled E. coli membrane hydrolysis assay
T2 sequence (P00592 23-146): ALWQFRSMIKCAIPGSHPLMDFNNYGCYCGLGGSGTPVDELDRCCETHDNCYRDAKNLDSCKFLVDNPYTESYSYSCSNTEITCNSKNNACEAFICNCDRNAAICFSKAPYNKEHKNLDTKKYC
The test is described as follows: Inhibition of porcine pancreatic PLA2, E. coli assay. On the procedure:
as §1, §2, §3

Test [1] addresses T3, recombinant human PLA2 (snpPLA2) (Homo sapiens, UniProt P14555).
T3 sequence (P14555 21-144): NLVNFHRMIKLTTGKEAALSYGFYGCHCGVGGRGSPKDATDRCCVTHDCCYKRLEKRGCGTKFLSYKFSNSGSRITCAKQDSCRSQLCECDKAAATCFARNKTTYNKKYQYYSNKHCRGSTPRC
The test is described as follows: Inhibition of recombinant human PLA2, radiolabelled E. coli assay. Here is the method:
as §1, §2, §3

Where [2] appears, read: concentrations of 25 μg/ml or greater.
The mark [3] stands for this setting: concentration required to inhibit 50% of PLA2, 30 min preincubation, read-out: IC50 (converted).

Consider six compounds from patent publication US5523297A, “Inhibition of excessive phospholipase A2 activity and/or production by non-antimicrobial tetracyclines” (The Research Foundation of State University of New York, priority 1995, dated 1996).

Read-outs that look alike come from different tables or passages of the source.

T1 sequence (P04054 23-148): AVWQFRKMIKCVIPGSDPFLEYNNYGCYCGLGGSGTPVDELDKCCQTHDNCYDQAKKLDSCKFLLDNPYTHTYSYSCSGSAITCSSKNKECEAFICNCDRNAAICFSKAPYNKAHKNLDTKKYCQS

A word on the IC50: it is the concentration needed to halve the response being measured. For `CC1(O)c2cccc(O)c2C(=O)C2=C(O)C3(O)C(=O)C(C(N)=O)=C(O)CC3CC21` (centres unmarked) [CMT-1, 4-dedimethylaminotetracycline], the “inhibition of human pancreatic PLA2” value against human pancreatic PLA2 is reported as “inhibit”. For the same compound, on porcine pancreatic PLA2, the “inhibition of porcine pancreatic PLA2” value was “inhibit”. Also, the IC50 in test [1] was 92.2 µM. For the same compound, the PLA2-inhibitory activity result in test [1] (setting [2]) is reported as “significant PLA2 -inhibitory activity”.
For the compound `CN(C)C1C(=O)C(C#N)=C(O)C2(O)C(=O)C3=C(O)c4c(O)cccc4C(C)(O)C3CC12` (centres unmarked) [CMT-2, tetracyclinonitrile], in test [1] (even at the highest concentrations tested (range 5-100 μg/ml)), the PLA2-inhibitory activity result is reported as “lacked any PLA2 -inhibitory activity”.
On to `NC(=O)C1=C(O)C2(O)C(=O)C3=C(O)c4c(O)cccc4CC3CC2CC1=O` (centres unmarked) [CMT-3, 6-demethyl-6-deoxy-4-dedimethylaminotetracycline], for which the “inhibition of human pancreatic PLA2” value against human pancreatic PLA2 was “inhibit”. On porcine pancreatic PLA2, the “inhibition of porcine pancreatic PLA2” value is recorded as “inhibit”. Also, the PLA2-inhibitory activity result in test [1] (setting [2]) is “significant PLA2 -inhibitory activity”.
Turning to `CC1(O)c2c(Cl)ccc(O)c2C(=O)C2=C(O)C3(O)C(=O)C(C(N)=O)=C(O)CC3CC21` (centres unmarked) [CMT-4, 4-de-dimethylamino-7-chloro-tetracycline], on human pancreatic PLA2, the “inhibition of human pancreatic PLA2” value is “inhibit”. The “inhibition of porcine pancreatic PLA2” value against porcine pancreatic PLA2 is “inhibit”. Moreover, the IC50 in test [1] (setting [3]) was 96.4 µM. For the same compound, the PLA2-inhibitory activity result in test [1] (setting [2]) is “significant PLA2 -inhibitory activity”.
As to `CC1(O)c2cccc(O)c2C(=O)C2=C(O)C3(O)C(=O)C(C(N)=O)=C(O)C(O)C3CC21` (centres unmarked) [CMT-6, 4-hydroxy-4-dedimethylaminotetracycline], on human pancreatic PLA2, the “inhibition of human pancreatic PLA2” value is “inhibit”. Besides, the “inhibition of porcine pancreatic PLA2” value against porcine pancreatic PLA2 is recorded as “inhibit”. Also, in test [1] (setting [3]), the IC50 is 40.7 µM. Moreover, the PLA2-inhibitory activity result in test [1] (setting [2]) was “significant PLA2 -inhibitory activity”.
The term inhibition denotes how much of the control response was suppressed. As to `CN(C)c1ccc(O)c2c1C(C)(O)C1CC3CC(O)=C(C(N)=O)C(=O)C3(O)C(O)=C1C2=O` (centres unmarked) [CMT-10, 4-dedimethylamino-7-dimethylaminotetracycline], the “inhibition of human pancreatic PLA2” value against human pancreatic PLA2 is reported as “inhibit”. At human pancreatic PLA2 (concentration of 30 μg/ml), this compound had an inhibition at 30 µg/mL of 66%. Besides, in test [1] (CMT-10 5 μg/ml), the inhibition at 5 µg/mL is 4 ± 4%. Besides, the inhibition at 10 µg/mL in test [1] (CMT-10 10 μg/ml) came out at 12 ± 2%. Besides, the inhibition at 25 µg/mL in test [1] (CMT-10 25 μg/ml) came out at 45 ± 1%. Moreover, in test [1] (CMT-10 50 μg/ml), the inhibition at 50 µg/mL was determined as 75 ± 2%. Besides, the inhibition at 100 µg/mL in test [1] (CMT-10 100 μg/ml) came to 87 ± 2%. Moreover, the IC50 in test [1] (setting [3]) was 67.5 µM. Also, the PLA2-inhibitory activity entry in test [1] (setting [2]) was “significant PLA2 -inhibitory activity”. The “inhibition of PLA2 activity” value in test [1] (final concentration of 5 and 10 μg/ml) is on record as “did not exhibit substantial inhibition”.
